Assay results: patent US10793582B2, “Bicyclic heterocyclic compound” (MITSUBISHI TANABE PHARMA CORPORATION, priority 2015, dated 2020)
Structures can show the parent of a compound that is named as a salt.

What follows are molecules tested against human recombinant KAT-II (Homo sapiens (Human), UniProt Q8N5Z0) (assay: KAT-II inhibitory test). Conditions: 3.0 μmol/L kynurenine, 37° C. for 1 hr, kynurenic acid by HPLC.
Type: biochemical
Method: The compounds described in the above-mentioned Examples were used for the KAT-II inhibitory test.
Human recombinant KAT-II was prepared as follows.
His tag and maltose binding protein tag were added to the N-terminal of a gene encoding human KAT-II (Genbank accession number: AF481738.1), and the obtained gene was incorporated into pET32 (Merck Nihon Millipore), which is an Escherichia coli expression vector. Human recombinant KAT-II produced by BL21(DE3) Escherichia coli (Merck Nihon Millipore, 69450) transformed using the plasmid was purified using an amylose resin column (New England Biolabs, #800-21 L).
The inhibitory action of the test compound on human recombinant KAT-II was determined by the following method.
To a reaction mixture (45 μL) containing 3.0 μmol/L kynurenine, 10 μmol/L pyridoxal phosphate, 2.0 ng/μL human recombinant KAT-II, and 150 mmol/L tris(hydroxymethyl)aminomethane-acetate buffer (pH 8.0) was added a 10% dimethyl sulfoxide solution (5 μL) of each test compound prepared, and the mixture was reacted at 37° C. for 1 hr. After the reaction, 50% trichloroacetic acid (5 μL) was added to terminate the reaction.
The resultant kynurenic acid was quantified as follows by high performance liquid chromatography. An enzyme reaction mixture was separated by an octadecylsilane reversed-phase column (SC-50DS, Eicom Corporation; mobile phase: 250 mmol/L zinc acetate, 50 mmol/L sodium acetate, and 5.0% acetonitrile (pH 6.2)) incubated at 30° C., and kynurenic acid was quantified using a fluorescence detector (RF-20Axs, Shimadzu Corporation) at excitation wavelength 354 nm, detection wavelength 460 nm. The analytical curve was drawn every time by an external standard method. Each test compound was tested by dual measurement at each concentration. The kynurenic acid level in the presence of a test compound at each concentration was converted into % relative to kynurenic acid resulting from a reaction with an enzyme alone as 100%, and the obtained values were fitted to S-curve to determine IC50.

Sequence of human recombinant KAT-II (Q8N5Z0 30-425): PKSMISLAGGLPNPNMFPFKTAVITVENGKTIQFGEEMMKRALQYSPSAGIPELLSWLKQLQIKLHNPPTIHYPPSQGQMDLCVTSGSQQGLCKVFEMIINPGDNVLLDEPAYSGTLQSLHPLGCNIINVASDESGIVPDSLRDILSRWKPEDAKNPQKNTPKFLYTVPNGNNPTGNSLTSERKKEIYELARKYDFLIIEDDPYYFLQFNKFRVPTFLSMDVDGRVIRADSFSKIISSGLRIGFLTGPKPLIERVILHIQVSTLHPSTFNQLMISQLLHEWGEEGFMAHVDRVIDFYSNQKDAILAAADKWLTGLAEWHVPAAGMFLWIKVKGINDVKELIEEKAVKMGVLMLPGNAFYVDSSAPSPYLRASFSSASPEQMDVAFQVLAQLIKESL

| IC50 [nM] | SMILES |
| --- | --- |
| 81 | N#Cc1cnc2nc(N3CCC[C@@H]3C(=O)NCc3ccccc3)sc2c1C1CC1 [Example 161] |
| 300 | O=C(NCc1ccc(F)cc1)[C@H]1CCCN1c1nc2ncc(C3CC3)cc2s1 [Example 162, (R)-1-(6-cyclopropyl[1,3]thiazolo[4,5-b]pyridin-2-yl)-N-(4-fluorobenzyl)pyrrolidine-2-carboxamide] |
| 910 | COCc1c(F)cnc2nc(N3CCC[C@@H]3C(=O)NCc3ccccc3)sc12 [Example 163, (R)—N-benzyl-1-[6-fluoro-7-(methoxymethyl)[1,3]thiazolo[4,5-b]pyridin-2-yl]pyrrolidine-2-carboxamide] |
| 150 | CCOc1c(COC)cnc2nc(N3CCC[C@@H]3C(=O)NCc3ccccc3)sc12 [Example 164] |
| 34 | CCc1c(-c2cnn(C)c2)cnc2nc(N3CCC[C@@H]3C(=O)NCc3ccccc3)sc12 [Example 170, (R)—N-benzyl-1-[7-ethyl-6-(1-methyl-1H-pyrazol-4-yl)[1,3]thiazolo[4,5-b]pyridin-2-yl]pyrrolidine-2-carboxamide] |
| 390 | Cc1nc(C(C)(C)c2cnc3nc(N4CCC[C@@H]4C(=O)NCc4ccccc4)sc3c2)no1 [Example 171, (R)—N-benzyl-1-{6-[2-(5-methyl-1,2,4-oxadiazol-3-yl)propan-2-yl][1,3]thiazolo[4,5-b]pyridin-2-yl}pyrrolidine-2-carboxamide] |
| 360 | O=C(NCc1ccccc1)[C@H]1CCCN1c1nc2ncc(CN3CCCCC3)c(C3CC3)c2s1 [Example 175, (R)—N-benzyl-1-[7-cyclopropyl-6-(piperidin-1-ylmethyl)[1,3]thiazolo[4,5-b]pyridin-2-yl]pyrrolidine-2-carboxamide hydrochloride] |
| 190 | CN(C)Cc1cnc2nc(N3CCC[C@@H]3C(=O)NCc3ccccc3)sc2c1C1CC1 [Example 176, (R)—N-benzyl-1-{7-cyclopropyl-6-[(dimethylamino)methyl][1,3]thiazolo[4,5-b]pyridin-2-yl}pyrrolidine-2-carboxamide hydrochloride] |
| 900 | N#Cc1cnc2nc(N3CCC[C@@H]3C(=O)NCc3ccccc3Cl)sc2c1 [Example 178] |
| 640 | Cc1nc(-c2cnc3nc(N4CCC[C@@H]4C(=O)NCc4ccccc4)sc3c2)no1 [Example 183, (R)—N-benzyl-1-[6-(5-methyl-1,2,4-oxadiazol-3-yl)[1,3]thiazolo[4,5-b]pyridin-2-yl]pyrrolidine-2-carboxamide] |
| 140 | CCc1cnc2nc(N3CCC[C@@H]3C(=O)NCc3ccccc3)sc2n1 [Example 187] |
| 300 | CCc1cnc2nc(N3CCC[C@@H]3C(=O)NCc3ccc(F)cc3)sc2n1 [Example 188] |
| 210 | O=C(NCc1ccccc1)[C@H]1CCCN1c1nc2ncc(-c3ccccc3)nc2s1 [Example 189] |
| 490 | CCOc1cnc2nc(N3CCC[C@@H]3C(=O)NCc3ccccc3)sc2n1 [Example 190] |
| 210 | CN(C)c1cnc2nc(N3CCC[C@@H]3C(=O)NCc3ccccc3)sc2n1 [Example 191] |
| 33 | O=C(NCc1ccccc1)[C@H]1CCCN1c1nc2ncc(C3CC3)nc2s1 [Example 192, (R)—N-benzyl-1-(6-cyclopropyl[1,3]thiazolo[4,5-b]pyrazin-2-yl)pyrrolidine-2-carboxamide] |
| 2900 | Cc1cnc2nc([C@H]3CCCN3C(=O)Cc3ccccc3)sc2c1 [Example 196, 1-[(R)-2-(6-methyl[1,3]thiazolo[4,5-b]pyridin-2-yl)pyrrolidin-1-yl]-2-phenylethanone] |
| 3000 | Cc1cnc2nc([C@H]3CCCN3C(=O)Oc3ccccc3)sc2c1 [Example 197, phenyl (R)-2-(6-methyl[1,3]thiazolo[4,5-b]pyridin-2-yl) pyrrolidine-1-carboxylate] |
| 7400 | Cc1cnc2nc([C@H]3CCCN3C(=O)NC3(c4ccccc4)CC3)sc2c1 [Example 203, (R)-2-(6-methyl[1,3]thiazolo[4,5-b]pyridin-2-yl)-N-(1-phenylcyclopropyl)-pyrrolidine-1-carboxamide] |
